“And” between values parts separate entries of the source, which are not always exact repeats. Identical values can stand only once.
Tests used:
Soy = assay: Tolerance rates for soybean (injury score 0-9)
Corn = assay: Tolerance rates for corn (injury score 0-9)

With CCOc1cc(Oc2ccc(C(F)(F)F)cc2Cl)ccc1[N+](=O)[O-] [Oxyfluorfen] as the compound, how does the injury score (Soy; Oxyfluorfen 600 g ai/ha, amino acid substitution L397D_F420V Event A, SEQ ID NO 2) read?
Its injury score is 4 and 5 and 6 and 9.

What about the injury score (Soy; Oxyfluorfen 600 g ai/ha, amino acid substitution L397D_F420V Event B, SEQ ID NO 2) of the same compound?
Its injury score is 6 and 4 and 8 and 5.

And the injury score (Soy; Oxyfluorfen 600 g ai/ha, amino acid substitution none, SEQ ID NO none)?
Its injury score is 8 and 7 and 9.

And the injury score (Soy; Oxyfluorfen 1200 g ai/ha, amino acid substitution L397D_F420V Event A, SEQ ID NO 2)?
The injury score was 5 and 4 and 3.

What about the injury score (Soy; Oxyfluorfen 1200 g ai/ha, amino acid substitution L397D_F420V Event B, SEQ ID NO 2) of the same compound?
The injury score was 5 and 4 and 6.

What about the injury score (Soy; Oxyfluorfen 1200 g ai/ha, amino acid substitution none, SEQ ID NO none) of the same compound?
The injury score was 9 and 8.

How did the injury score (Soy; Flumioxazin 150 g ai/ha, amino acid substitution L397D_F420V Event A, SEQ ID NO 2) turn out when C#CCN1C(=O)COc2cc(F)c(N3C(=O)C4=C(CCCC4)C3=O)cc21 [flumioxazin] was run?
The injury score was 9 and 6 and 5 and 4.

What about the injury score (Soy; Flumioxazin 150 g ai/ha, amino acid substitution L397D_F420V Event B, SEQ ID NO 2) of the same compound?
Its injury score is 5 and 6 and 4.

And the injury score (Soy; Flumioxazin 150 g ai/ha, amino acid substitution none, SEQ ID NO none)?
Its injury score is 9.

For CS(=O)(=O)NC(=O)c1cc(Oc2ccc(C(F)(F)F)cc2Cl)ccc1[N+](=O)[O-] [fomesafen], which injury score (Soy; Fomesafen 600 g ai/ha, amino acid substitution L397D_F420V Event A, SEQ ID NO 2) is on record?
The injury score was 1 and 2 and 0 and 4.

What about the injury score (Soy; Fomesafen 600 g ai/ha, amino acid substitution L397D_F420V Event B, SEQ ID NO 2) of the same compound?
The injury score was 2 and 4 and 1 and 3.

And the injury score (Soy; Fomesafen 600 g ai/ha, amino acid substitution none, SEQ ID NO none)?
Its injury score is 5 and 4.

With CC(C)N(C)S(=O)(=O)NC(=O)c1cc(-n2c(=O)cc(C(F)(F)F)n(C)c2=O)c(F)cc1Cl [saflufenacil] as the compound, how does the “Tolerance rate (injury score), Saflufenacil 25 g ai/ha” value (Corn; Corn events with PPO L397D, F420M (SEQ ID NO 2), Saflufenacil 25 g ai/ha) read?
Its value is 2 and 3 and 1.

And the “Tolerance rate (injury score), Saflufenacil 50 g ai/ha” value (Corn; Corn events with PPO L397D, F420M (SEQ ID NO 2), Saflufenacil 50 g ai/ha)?
Its value is 1 and 2 and 3 and 0.

And the “Tolerance rate (injury score), Saflufenacil 100 g ai/ha” value (Corn; Corn events with PPO L397D, F420M (SEQ ID NO 2), Saflufenacil 100 g ai/ha)?
Its value is 7 and 3.

And the “Tolerance rate (injury score), Saflufenacil 100 g ai/ha” value (Corn; Corn events with PPO L397E, F420M (SEQ ID NO 2), Saflufenacil 100 g ai/ha)?
Its value is 1 and 0 and 7.

And the “Tolerance rate (injury score), Saflufenacil 100 g ai/ha” value (Corn; Corn events with PPO L397Q (SEQ ID NO 2), Saflufenacil 100 g ai/ha)?
The value was 4 and 5.

And the “Tolerance rate (injury score), Saflufenacil 100 g ai/ha” value (Corn; Corn events with PPO L397Q, F420M (SEQ ID NO 2), Saflufenacil 100 g ai/ha)?
Its value is 0 and 1.

What about the “Tolerance rate (injury score), Saflufenacil 100 g ai/ha” value (Corn; Corn events with PPO L397Q, F420V (SEQ ID NO 2), Saflufenacil 100 g ai/ha) of the same compound?
The value was 4 and 2 and 3 and 7 and 5.

And the “Tolerance rate (injury score), Saflufenacil 100 g ai/ha” value (Corn; Corn events, amino acid substitution not given, Saflufenacil 100 g ai/ha)?
The value was 1.

What about the “Tolerance rate (injury score), corn” value (Corn; Saflufenacil 25 g ai/ha, corn events 37-53, amino acid substitution not given) of the same compound?
Its value is 6 and 7 and 5 and 8 and 4.

And the “Tolerance rate (injury score), corn” value (Corn; Saflufenacil 25 g ai/ha, corn events with PPO substitution F420L (SEQ ID NO 2))?
Its value is 6 and 7.

And the “Tolerance rate (injury score), corn” value (Corn; Saflufenacil 25 g ai/ha, corn events with PPO substitution F420M (SEQ ID NO 2))?
The value was 4 and 6 and 8 and 7 and 5.

What about the “Tolerance rate (injury score), corn” value (Corn; Saflufenacil 25 g ai/ha, corn events with PPO substitution L397D, F420V (SEQ ID NO 2)) of the same compound?
Its value is 6 and 5 and 7.

And the “Tolerance rate (injury score), corn” value (Corn; Saflufenacil 25 g ai/ha, corn events with PPO substitution L397E, F420V (SEQ ID NO 2))?
Its value is 1 and 0 and 3.

And the “Tolerance rate (injury score), corn” value (Corn; Saflufenacil 50 g ai/ha, corn events 54-81, amino acid substitution not given)?
Its value is 6 and 7 and 4 and 5.

And the “Tolerance rate (injury score), corn” value (Corn; Saflufenacil 50 g ai/ha, corn events with PPO substitution F420L (SEQ ID NO 2))?
The value was 7 and 8 and 6.

And the “Tolerance rate (injury score), corn” value (Corn; Saflufenacil 50 g ai/ha, corn events with PPO substitution F420M (SEQ ID NO 2))?
Its value is 7 and 6 and 8.

What about the “Tolerance rate (injury score), corn” value (Corn; Saflufenacil 50 g ai/ha, corn events with PPO substitution L397D, F420V (SEQ ID NO 2)) of the same compound?
Its value is 4 and 6 and 7.

What about the “Tolerance rate (injury score), corn” value (Corn; Saflufenacil 50 g ai/ha, corn events with PPO substitution L397E, F420V (SEQ ID NO 2)) of the same compound?
Its value is 1 and 0 and 2 and 3.

What about the “Tolerance rate (injury score), corn” value (Corn; Saflufenacil 100 g ai/ha, corn events with PPO substitution F420L (SEQ ID NO 2)) of the same compound?
The value was 8 and 7 and 6.

And the “Tolerance rate (injury score), corn” value (Corn; Saflufenacil 100 g ai/ha, corn events with PPO substitution L397E, F420V (SEQ ID NO 2))?
Its value is 0 and 1 and 3 and 2.

What about the injury score (Soy; Soy, saflufenacil 12.5 g ai/ha, amino acid substitution F420L, SEQ ID NO 2) of the same compound?
Its injury score is 1 and 0 and 3.

And the injury score (Soy; Soy, saflufenacil 12.5 g ai/ha, amino acid substitution L369D, F392V, SEQ ID NO 40)?
Its injury score is 9 and 7 and 4 and 5 and 6.

And the injury score (Soy; Soy, saflufenacil 12.5 g ai/ha, amino acid substitution L397E, SEQ ID NO 2)?
The injury score was 5 and 4 and 0 and 3.

And the injury score (Soy; Soy, saflufenacil 12.5 g ai/ha, amino acid substitution L397Q, SEQ ID NO 2)?
Its injury score is 4.

What about the injury score (Soy; Soy, saflufenacil 12.5 g ai/ha, amino acid substitution none, SEQ ID NO 2) of the same compound?
The injury score was 2 and 4 and 7 and 8 and 5.

And the injury score (Soy; Soy, saflufenacil 12.5 g ai/ha, amino acid substitution none, SEQ ID NO 40)?
The injury score was 9 and 3 and 4 and 8 and 7.

What about the injury score (Soy; Soy, saflufenacil 25 g ai/ha, amino acid substitution F420L, SEQ ID NO 2) of the same compound?
The injury score was 9 and 0 and 2.

And the injury score (Soy; Soy, saflufenacil 25 g ai/ha, amino acid substitution L369D, F392V, SEQ ID NO 40)?
The injury score was 9 and 5 and 6 and 7 and 4.

What about the injury score (Soy; Soy, saflufenacil 25 g ai/ha, amino acid substitution L397D, SEQ ID NO 2) of the same compound?
Its injury score is 7 and 2 and 9 and 5 and 3.

What about the injury score (Soy; Soy, saflufenacil 25 g ai/ha, amino acid substitution L397E, SEQ ID NO 2) of the same compound?
The injury score was 3 and 6 and 4 and 5 and 1.

What about the injury score (Soy; Soy, saflufenacil 25 g ai/ha, amino acid substitution L397Q, SEQ ID NO 2) of the same compound?
The injury score was 3.

And the injury score (Soy; Soy, saflufenacil 25 g ai/ha, amino acid substitution none, SEQ ID NO 2)?
Its injury score is 4 and 3 and 7 and 9 and 8.

What about the injury score (Soy; Soy, saflufenacil 25 g ai/ha, amino acid substitution none, SEQ ID NO 40) of the same compound?
Its injury score is 9 and 6.

And the injury score (Soy; Soy, saflufenacil 50 g ai/ha, amino acid substitution F420L, SEQ ID NO 2)?
The injury score was 9 and 0 and 2.

What about the injury score (Soy; Soy, saflufenacil 50 g ai/ha, amino acid substitution L369D, F392V, SEQ ID NO 40) of the same compound?
The injury score was 9 and 6 and 7 and 5.

What about the injury score (Soy; Soy, saflufenacil 50 g ai/ha, amino acid substitution L397D, SEQ ID NO 2) of the same compound?
The injury score was 9 and 4 and 3 and 6 and 5.

And the injury score (Soy; Soy, saflufenacil 50 g ai/ha, amino acid substitution L397E, F420M, SEQ ID NO 2)?
Its injury score is 1 and 0 and 2.

And the injury score (Soy; Soy, saflufenacil 50 g ai/ha, amino acid substitution L397E, SEQ ID NO 2)?
Its injury score is 3 and 6 and 4 and 7.

And the injury score (Soy; Soy, saflufenacil 50 g ai/ha, amino acid substitution L397Q, F420M, SEQ ID NO 2)?
Its injury score is 0 and 6 and 1 and 5 and 4.

What about the injury score (Soy; Soy, saflufenacil 50 g ai/ha, amino acid substitution L397Q, F420V, SEQ ID NO 2) of the same compound?
Its injury score is 0 and 7.

And the injury score (Soy; Soy, saflufenacil 50 g ai/ha, amino acid substitution L397Q, SEQ ID NO 2)?
Its injury score is 8.

What about the injury score (Soy; Soy, saflufenacil 50 g ai/ha, amino acid substitution none, SEQ ID NO 2) of the same compound?
The injury score was 7 and 8 and 9 and 6.

And the injury score (Soy; Soy, saflufenacil 50 g ai/ha, amino acid substitution none, SEQ ID NO 40)?
Its injury score is 9 and 8.

And the injury score (Soy; Soy, saflufenacil 100 g ai/ha, amino acid substitution F420L, SEQ ID NO 2)?
Its injury score is 9.

What about the injury score (Soy; Soy, saflufenacil 100 g ai/ha, amino acid substitution L369D, F392V, SEQ ID NO 40) of the same compound?
The injury score was 9 and 6.

What about the injury score (Soy; Soy, saflufenacil 100 g ai/ha, amino acid substitution L397D, SEQ ID NO 2) of the same compound?
The injury score was 9 and 4 and 6 and 5.

And the injury score (Soy; Soy, saflufenacil 100 g ai/ha, amino acid substitution L397E, F420M, SEQ ID NO 2)?
Its injury score is 2 and 0 and 1.

And the injury score (Soy; Soy, saflufenacil 100 g ai/ha, amino acid substitution L397Q, F420M, SEQ ID NO 2)?
Its injury score is 0 and 7 and 3 and 6 and 1 and 2.

What about the injury score (Soy; Soy, saflufenacil 100 g ai/ha, amino acid substitution L397Q, F420V, SEQ ID NO 2) of the same compound?
Its injury score is 0 and 7.

With Cc1nn(-c2cc(NS(C)(=O)=O)c(Cl)cc2Cl)c(=O)n1C(F)F [sulfentrazone] as the compound, how does the injury score (Soy; Sulfentrazone 350 g ai/ha, amino acid substitution L397D_F420V Event A, SEQ ID NO 2) read?
The injury score was 9 and 6 and 3 and 5.

And the injury score (Soy; Sulfentrazone 350 g ai/ha, amino acid substitution L397D_F420V Event B, SEQ ID NO 2)?
Its injury score is 4 and 5 and 6.

And the injury score (Soy; Sulfentrazone 350 g ai/ha, amino acid substitution none, SEQ ID NO none)?
Its injury score is 9 and 7 and 8.

And the injury score (Soy; Sulfentrazone 700 g ai/ha, amino acid substitution L397D_F420V Event A, SEQ ID NO 2)?
Its injury score is 2 and 3 and 7 and 1 and 4 and 6.

And the injury score (Soy; Sulfentrazone 700 g ai/ha, amino acid substitution L397D_F420V Event B, SEQ ID NO 2)?
Its injury score is 4 and 5 and 6.

And the injury score (Soy; Sulfentrazone 700 g ai/ha, amino acid substitution none, SEQ ID NO none)?
Its injury score is 9.

— patent US12686873B2, “Plants having increased tolerance to herbicides” (priority 2012, dated 2026)
